Columns and labels:
Assay in all cases: relative viability (nuclei count vs DMSO), 5 days (fraction); higher = more cells survive
[1] = compound: C1=CC2=NC=CN=C2C=C1/C=C/3\C(=O)NC(=O)S3 + Nc1nc2[nH]cc(CCc3ccc(C(=O)N[C@@H](CCC(=O)O)C(=O)O)cc3)c2c(=O)[nH]1 [Pemetrexed] (partner 0.2 µM)
Summary of the method: (§1)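 Lung cancer cell lines in 1536-well plates got either a single drug or a fixed anchor-drug dose together with five library-drug doses (not always all listed) in √10 steps, by pin tool, on the day after seeding. Nuclei were counted after 5 days, and relative viability is the treated-to-vehicle ratio of nuclei counts. Values are medians of duplicate plates.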

[2] = compound: C1=CC2=NC=CN=C2C=C1/C=C/3\C(=O)NC(=O)S3 + O=C(c1cc(Cc2n[nH]c(=O)c3ccccc23)ccc1F)N1CCN(C(=O)C2CC2)CC1 [Olaparib] (partner 8 µM)
Summary of the method: as §1

BGJ398 + Pictilisib = compound: CCN1CCN(c2ccc(Nc3cc(N(C)C(=O)Nc4c(Cl)c(OC)cc(OC)c4Cl)ncn3)cc2)CC1 [BGJ398] + CS(=O)(=O)N1CCN(Cc2cc3nc(-c4cccc5[nH]ncc45)nc(N4CCOCC4)c3s2)CC1 [Pictilisib] (partner 1 µM)
Summary of the method: as §1

BGJ398 + Vorinostat = compound: CCN1CCN(c2ccc(Nc3cc(N(C)C(=O)Nc4c(Cl)c(OC)cc(OC)c4Cl)ncn3)cc2)CC1 [BGJ398] + O=C(CCCCCCC(=O)Nc1ccccc1)NO [Vorinostat] (partner 1 µM)
Summary of the method: as §1

Row | Cell Line | relative viability ([1]; first compound 0.02 µM) | relative viability ([1]; first compound 0.06325 µM) | relative viability ([1]; first compound 0.2 µM) | relative viability ([1]; first compound 0.6325 µM) | relative viability ([1]; first compound 2 µM) | relative viability ([2]; first compound 0.02 µM) | relative viability ([2]; first compound 0.06325 µM) | relative viability ([2]; first compound 0.2 µM) | relative viability ([2]; first compound 0.6325 µM) | relative viability ([2]; first compound 2 µM) | relative viability (BGJ398 + Pictilisib; first compound 0.01 µM) | relative viability (BGJ398 + Pictilisib; first compound 0.03162 µM) | relative viability (BGJ398 + Pictilisib; first compound 0.1 µM) | relative viability (BGJ398 + Pictilisib; first compound 0.3162 µM) | relative viability (BGJ398 + Pictilisib; first compound 1 µM) | relative viability (BGJ398 + Vorinostat; first compound 0.01 µM) | relative viability (BGJ398 + Vorinostat; first compound 0.03162 µM) | relative viability (BGJ398 + Vorinostat; first compound 0.1 µM) | relative viability (BGJ398 + Vorinostat; first compound 0.3162 µM) | relative viability (BGJ398 + Vorinostat; first compound 1 µM)
1 | NCI-H2347 | 0.417 | 0.447 | 0.427 | 0.444 | 0.408 | 0.528 | 0.583 | 0.553 | 0.635 | 0.543 | 0.615 | 0.964 | 0.591 | 0.593 | 0.918 | 0.63 | 0.763 | 0.606 | 0.55 | 0.608
2 | NCI-H2405 | 1.1 | 1.28 | 1.22 | 1.05 | 0.859 | 0.791 | 0.999 | 0.851 | 0.848 | 0.712 | 0.406 | 0.587 | 0.42 | 0.482 | 0.421 | 1.13 | 1.04 | 0.919 | 0.938 | 1.01
3 | NCI-H3122 | 0.224 | 0.216 | 0.205 | 0.2 | 0.195 | 0.552 | 0.679 | 0.568 | 0.556 | 0.619 | 0.609 | 0.652 | 0.625 | 0.678 | 0.582 | 0.99 | 0.991 | 1.01 | 0.996 | 1.2
4 | PC-3 [JPC-3] | 1.19 | 1.17 | 1.2 | 1.19 | 1.23 | 1.07 | 1.18 | 1.11 | 1.18 | 1.13 | 0.716 | – | 0.708 | 0.492 | 0.689 | 1.04 | – | 0.52 | – | 0.705
5 | PC-14 | 0.138 | 0.148 | 0.156 | 0.131 | 0.145 | 0.25 | 0.363 | 0.263 | 0.227 | 0.277 | 0.696 | 0.346 | 0.92 | 0.669 | 0.866 | 0.722 | 0.121 | 0.818 | – | 0.78
6 | RERF-LC-KJ | 0.525 | 0.501 | 0.465 | 0.489 | 0.455 | 0.893 | 0.937 | 1 | 0.888 | 0.939 | 0.598 | 0.663 | 0.515 | 0.583 | 0.615 | 0.668 | 0.643 | 0.765 | 0.727 | 0.539
7 | SK-LU-1 | 1.03 | 1.1 | 1.02 | 0.967 | 0.798 | 0.477 | 0.42 | 0.488 | 0.521 | 0.465 | 0.547 | 0.61 | 0.497 | 0.531 | 0.424 | 0.764 | 0.773 | 0.839 | 0.767 | 0.774
8 | SK-MES-1 | 0.99 | 1.01 | 0.953 | 0.884 | 0.837 | 0.677 | 0.793 | 0.846 | 0.796 | 0.657 | 0.401 | 0.415 | 0.431 | 0.383 | 0.335 | 1.05 | 1.11 | 1.03 | 1.09 | 0.913
9 | SW 1573 | 0.883 | 1.1 | 0.802 | 0.862 | 0.711 | 0.501 | 0.65 | 0.434 | 0.405 | 0.387 | 0.485 | 0.486 | 0.495 | 0.438 | 0.611 | 0.742 | 0.796 | 0.713 | 0.854 | 0.786

— the supplement of paper PMC10307832
